Legend:
[1] = tested on: variety of crops and weed species; test: Pre- and post-emergence herbicide tests, overall assessment of Tables III-VI; assay type: in vivo; details: data of Tables III-VI
Description: All crop and weed species were planted individually in 3' plastic pots containing potting soil. Four seeds each of corn, cotton, and snapbeans were seeded to a depth equal to the diameter of the seed. All other species were surface seeded and sprinkled with screened soil in an amount sufficient to cover the seed. Immediately after planting, all pots were watered by sub-irrigation in greenhouse trays. Pots for the pre-emergence phase were seeded one day before treatment.
Compounds were tested at rates of application equivalent to 8 lbs. of actual compound per acre in a spray volume of 38 gallons per acre. Spray hood constants required to deliver the above volume are as follows:
Two weeks after treatment, pre- and post-emergence injury or control was visually rated, and the results were as shown in the following tables. Pre-emergence data are provided in TABLE III and post-emergence data are provided in TABLE IV, for compounds having the formula illustrated in TABLE I. Correspondingly, pre-emergence and post-emergence data, respectively, are set forth in TABLES V AND VI, for compounds having the formula illustrated in TABLE II.

Corn (CN) [2] = test: Pre-emergence herbicide test; assay type: in vivo; details: Zea mays, 336 h, 8 lb/acre, two weeks after treatment
Procedure, shortened: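 Four corn seeds per pot, sown at seed-diameter depth one day before spraying, got soil surface treatment at 8 lbs/acre (4 lbs/acre formulations also prepared) in 38 gallons/acre. Pots were greenhouse-held with sub-irrigation only. Injury or control was scored visually two weeks after treatment.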

Cotton (CT) [3] = test: Pre-emergence herbicide test; assay type: in vivo, Gossypium hirsutum var. DPL smooth leaf; details: Gossypium hirsutum, 336 h, 8 lb/acre, two weeks after treatment
Procedure, shortened: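 Crop and weed species seeded one day before treatment, then sprayed pre-emergence at 8 lbs actual compound per acre (also 4 lbs/acre formulations) in 38 gallons per acre. Pots kept in greenhouse with sub-irrigation only; injury or control visually rated two weeks after treatment.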

Barnyard grass (BG) = test: Post-emergence herbicide test; assay type: in vivo; details: Echinochloa crus-galli, 336 h, 8 lb/acre, two weeks after treatment
Procedure, shortened: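 Greenhouse pot-grown barnyard grass seedlings sprayed post-emergence at 8 lbs active compound per acre (some at 4 lbs/acre) in 38 gallons per acre, then sub-irrigated. Injury or control rated visually two weeks after treatment.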

Johnson grass (JG) [4] = test: Pre-emergence herbicide test; assay type: in vivo, Sorgum helepense; details: Sorghum halepense, 336 h, 8 lb/acre, two weeks after treatment
Procedure, shortened: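 Pots seeded one day before spraying; compound applied pre-emergence at 8 lbs/acre (or 4 lbs/acre) in 38 gallons/acre spray volume. Sub-irrigated in greenhouse; injury/control rated visually two weeks after treatment.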

Turnip (TP) [5] = test: Post-emergence herbicide test; assay type: in vivo, Brassica sp.; details: Brassica rapa, post-emergence, 336 h; 8 lb/acre; two weeks after treatment
Procedure, shortened: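 A greenhouse post-emergence herbicide test on turnip. Seeds were sown on the surface of potting soil in 3' plastic pots, lightly covered with screened soil and watered from below. Planting was timed so seedlings had 1 or 2 true leaves above the cotyledons at spraying, done in a hood with a fixed nozzle. Control or injury was scored by eye after two weeks.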

Johnson grass (JG) [6] = test: Post-emergence herbicide test; assay type: in vivo, Sorgum helepense; details: Sorghum halepense, 336 h, 8 lb/acre, two weeks after treatment
Procedure, shortened: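 Greenhouse pot-grown seedlings sprayed post-emergence at 8 lbs compound per acre (some at 4 lbs/acre) in 38 gallons per acre spray volume. Sub-irrigated thereafter. Injury/control rated visually two weeks after treatment.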

Turnip (TP) [7] = test: Pre-emergence herbicide test; assay type: in vivo, Brassica sp.; details: Brassica rapa, pre-emergence, 336 h; 8 lb/acre; two weeks after treatment
Procedure, shortened: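 Turnip (Brassica sp.) seeds were surface sown in 3' plastic pots of potting soil, covered with a thin layer of screened soil, and sub-irrigated in greenhouse trays. Pots were seeded one day ahead of treatment, sprayed pre-emergence under a hood with a fixed nozzle and moving belt, then kept in the greenhouse.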

Amaranth pigweed (PW) [8] = test: Pre-emergence herbicide test; assay type: in vivo, Amaranthus retroflexus; details: 336 h, 8 lb/acre, two weeks after treatment
Procedure, shortened: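 Pigweed was surface-seeded in potted soil one day before spraying at 8 lbs compound per acre, or 4 lbs/acre, in 38 gallons per acre. Pots were kept in the greenhouse with sub-irrigation only; injury or control was rated visually two weeks after treatment.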

Crabgrass (CG) [9] = test: Pre-emergence herbicide test; assay type: in vivo, Digitaria sanquinalis; details: Digitaria sanguinalis, pre-emergence, 336 h; 8 lb/acre; two weeks after treatment
Procedure, shortened: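 Crabgrass (Digitaria sanquinalis) was surface seeded in 3' plastic pots of potting soil, covered with screened soil, and watered by sub-irrigation in greenhouse trays. Pots were seeded one day before spraying in a hood with a moving belt and fixed nozzle. Plants stayed in the greenhouse on sub-irrigation, and pre-emergence control was rated visually two weeks after treatment.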

Bean (BN) [10] = test: Pre-emergence herbicide test; assay type: in vivo, Phaseolus vulgaris var. Black Valentine; details: Phaseolus vulgaris, 336 h, 8 lb/acre, two weeks after treatment
Procedure, shortened: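 Black Valentine bean was seeded in potting soil one day before spraying. Compound was applied pre-emergence at 8 lbs/acre (also 4 lbs/acre) in 38 gallons per acre. Plants were sub-irrigated and injury or control was rated visually after two weeks.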

Corn (CN) [11] = test: Post-emergence herbicide test; assay type: in vivo; details: Zea mays, 336 h, 8 lb/acre, two weeks after treatment
Procedure, shortened: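 Greenhouse seedlings grown in potting soil and sprayed post-emergence at 8 lbs compound/acre (formulations also made for 4 lbs/acre) in 38 gallons/acre spray volume. Watering by sub-irrigation only. Injury or control rated visually two weeks after treatment.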

Crabgrass (CG) [12] = test: Post-emergence herbicide test; assay type: in vivo, Digitaria sanquinalis; details: Digitaria sanguinalis, post-emergence, 336 h; 8 lb/acre; two weeks after treatment
Procedure, shortened: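 Crabgrass (Digitaria sanquinalis) was surface seeded individually in 3' plastic pots of potting soil, covered with screened soil, and watered by sub-irrigation in greenhouse trays. Planting was staggered so seedlings reached the target stage together. Post-emergence sprays were applied in a hood with a removable belt and fixed nozzle, and control was visually rated two weeks after treatment.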

Bean (BN) [13] = test: Post-emergence herbicide test; assay type: in vivo, Phaseolus vulgaris var. Black Valentine; details: Phaseolus vulgaris, post-emergence, 336 h; 8 lb/acre; two weeks after treatment
Procedure, shortened: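 Snapbean (Phaseolus vulgaris var. Black Valentine) was tested post-emergence. Four seeds were sown in 3' plastic pots of potting soil at a depth equal to the seed diameter, then sub-irrigated in greenhouse trays. Planting dates were staggered so plants were sprayed once primary leaves had expanded, with the growing point at the primary leaf nodes.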

Amaranth pigweed (PW) [14] = test: Post-emergence herbicide test; assay type: in vivo, Amaranthus retroflexus; details: 336 h, 8 lb/acre, two weeks after treatment
Procedure, shortened: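 Pot-grown pigweed was sprayed post-emergence at the 1–2 true-leaf stage with compound at rates equivalent to 8 lbs per acre (formulations also prepared for 4 lbs/acre) in 38 gallons per acre, using a hood with fixed nozzle. Plants were sub-irrigated in the greenhouse, and injury or control was rated visually two weeks after treatment.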

Cotton (CT) [15] = test: Post-emergence herbicide test; assay type: in vivo, Gossypium hirsutum var. DPL smooth leaf; details: Gossypium hirsutum, post-emergence, 336 h; 8 lb/acre; two weeks after treatment
Procedure, shortened: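 Cotton (Gossypium hirsutum var. DPL smooth leaf) was grown in 3' plastic pots of potting soil, four seeds per pot, planted at a depth equal to the seed diameter and watered by sub-irrigation. At the stage of expanded cotyledons with the first true leaf 1' long, plants were sprayed post-emergence in a hood with a fixed nozzle over a moving belt. Percent control was rated visually two weeks later.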

Compound: CCc1nnc(NC(=O)N(C)C)s1 [Example 20]
- herbicidal effectiveness / selectivity, in words [1]: more selective when applied to a certain crop or weed species
- pest or weed control at 8966.8 g/ha (Corn (CN) [2]): 30%
- pest or weed control at 8966.8 g/ha (Cotton (CT) [3]): 30%
- pest or weed control at 8966.8 g/ha (Barnyard grass (BG)): 20%
- pest or weed control at 8966.8 g/ha (Johnson grass (JG) [4]): 70%
- pest or weed control at 8966.8 g/ha (Turnip (TP) [5]): 90%
- pest or weed control at 8966.8 g/ha (Johnson grass (JG) [6]): 20%
- pest or weed control at 8966.8 g/ha (Turnip (TP) [7]): 100%
- pest or weed control at 8966.8 g/ha (Amaranth pigweed (PW) [8]): 90%
- pest or weed control at 8966.8 g/ha (Crabgrass (CG) [9]): 90%
- pest or weed control at 8966.8 g/ha (Bean (BN) [10]): 10%
- pest or weed control at 8966.8 g/ha (Corn (CN) [11]): 30%
- pest or weed control at 8966.8 g/ha (Crabgrass (CG) [12]): 20%
- pest or weed control at 8966.8 g/ha (Bean (BN) [13]): 50%
- pest or weed control at 8966.8 g/ha (Amaranth pigweed (PW) [14]): 100%
- pest or weed control at 8966.8 g/ha (Cotton (CT) [15]): 80%
